Measured values taken from PubChem BioAssay AID1259407 (Chemical Carcinogenesis Research Information System (CCRIS), 2018).
Active and inactive are the calls of the source. No rule for the calls is given here.

Test system: CCRIS mutagenicity, Ames/micronucleus/aberration tests
Assay: CCRIS mutagenicity studies
[1] = Test System: AMES SALMONELLA TYPHIMURIUM, Strain/Indicator: TA98, Metabolic Activation: NONE
[2] = Test System: AMES SALMONELLA TYPHIMURIUM, Strain/Indicator: TA100, Metabolic Activation: NONE
[3] = Test System: AMES SALMONELLA TYPHIMURIUM, Strain/Indicator: TA1535, Metabolic Activation: NONE
[4] = Test System: AMES SALMONELLA TYPHIMURIUM, Strain/Indicator: TA1537, Metabolic Activation: NONE
[5] = Test System: AMES SALMONELLA TYPHIMURIUM, Strain/Indicator: TA98, Metabolic Activation: NONE, Method: STANDARD PLATE
[6] = Test System: AMES SALMONELLA TYPHIMURIUM, Strain/Indicator: TA100, Metabolic Activation: NONE, Method: STANDARD PLATE
[7] = Test System: AMES SALMONELLA TYPHIMURIUM, Strain/Indicator: TA98, Metabolic Activation: RAT, LIVER, S-9, AROCLOR 1254, Method: STANDARD PLATE
[8] = Test System: AMES SALMONELLA TYPHIMURIUM, Strain/Indicator: TA100, Metabolic Activation: RAT, LIVER, S-9, AROCLOR 1254, Method: STANDARD PLATE

Measured: mutagenic call

CCCN(CCC)c1c([N+](=O)[O-])cc(C(F)(F)F)cc1[N+](=O)[O-]
inactive: Test System: AMES SALMONELLA TYPHIMURIUM, Strain/Indicator: TA98, Metabolic Activation: LIVER S-9 inactive; negative | [1] inactive; negative | Test System: AMES SALMONELLA TYPHIMURIUM, Strain/Indicator: TA100, Metabolic Activation: LIVER S-9 inactive; negative | [2] inactive; negative | Test System: AMES SALMONELLA TYPHIMURIUM, Strain/Indicator: TA1535, Metabolic Activation: LIVER S-9 inactive; negative | [3] inactive; negative | Test System: AMES SALMONELLA TYPHIMURIUM, Strain/Indicator: TA1537, Metabolic Activation: LIVER S-9 inactive; negative | [4] inactive; negative | Test System: AMES SALMONELLA TYPHIMURIUM, Strain/Indicator: TA1538, Metabolic Activation: LIVER S-9 inactive; negative | Test System: AMES SALMONELLA TYPHIMURIUM, Strain/Indicator: TA1538, Metabolic Activation: NONE inactive; negative | Test System: CHINESE HAMSTER V-79 CELLS, Strain/Indicator: HGPRT, Metabolic Activation: LIVER S-9 inactive; negative | Test System: CHINESE HAMSTER V-79 CELLS, Strain/Indicator: HGPRT, Metabolic Activation: NONE inactive; negative | Test System: CHO-KI CELLS, Strain/Indicator: HGPRT, Metabolic Activation: LIVER S-9 inactive; negative | Test System: CHO-KI CELLS, Strain/Indicator: HGPRT, Metabolic Activation: NONE inactive; negative | Test System: UDS HELA CELLS, Metabolic Activation: LIVER S-9 inactive; negative | Test System: UDS HELA CELLS, Metabolic Activation: NONE inactive; negative | Test System: UDS RAT HEPATOCYTES, Metabolic Activation: NONE inactive; negative

O=C1CCc2c1cc(C(F)(F)F)c1c3c(ccc21)[C@H](O)[C@@H](O)C=C3
active: Test System: AMES SALMONELLA TYPHIMURIUM, Strain/Indicator: TA100, Metabolic Activation: RAT, LIVER, S-9, AROCLOR 1254 active; positive

CC(C)=CCCC(C)CCO (stereo not drawn)
inactive: [5] inactive; negative | Test System: AMES SALMONELLA TYPHIMURIUM, Strain/Indicator: TA98, Metabolic Activation: S-9, Method: STANDARD PLATE inactive; negative | [6] inactive; negative

Fc1cc2cccnc2c2cccnc12
active: Test System: AMES SALMONELLA TYPHIMURIUM, Strain/Indicator: TA100, Metabolic Activation: RAT, LIVER, S-9, PHENOBARBITAL AND 5,6-BENZOFLAVONE, Method: PREINCUBATION active; positive

Clc1cncc(Cl)c1
inactive: Test System: AMES SALMONELLA TYPHIMURIUM, Strain/Indicator: TA97, Metabolic Activation: NONE, Method: STANDARD PLATE inactive; negative | Test System: AMES SALMONELLA TYPHIMURIUM, Strain/Indicator: TA97, Metabolic Activation: RAT, LIVER, S-9, AROCLOR 1254, Method: STANDARD PLATE inactive; negative | [5] inactive; negative | [7] inactive; negative | [6] inactive; negative | [8] inactive; negative | Test System: AMES SALMONELLA TYPHIMURIUM, Strain/Indicator: TA102, Metabolic Activation: NONE, Method: STANDARD PLATE inactive; negative | Test System: AMES SALMONELLA TYPHIMURIUM, Strain/Indicator: TA102, Metabolic Activation: RAT, LIVER, S-9, AROCLOR 1254, Method: STANDARD PLATE inactive; negative

C#C[C@]1(O)CC[C@H]2[C@@H]3CCC4=CC(=O)CC[C@@H]4[C@H]3CC[C@@]21C
inactive: End Point: IN VITRO CHROMOSOMAL ABERRATIONS, Test System: HUMAN LYMPHOCYTES, Metabolic Activation: NONE inactive; negative | End Point: IN VITRO CHROMOSOMAL ABERRATIONS, Test System: HUMAN LYMPHOCYTES, Metabolic Activation: RAT, LIVER, S-9, PHENOBARBITONE inactive; negative | End Point: IN VIVO MICRONUCLEUS, Test System: HEPATOCYTES, Species: RAT, Strain/Sex: SPRAGUE-DAWLEY/FEMALE, Route: INTRAGASTRIC (GAVAGE) inactive; negative (nonstatistically significant increase) | [1] inactive; negative | Test System: AMES SALMONELLA TYPHIMURIUM, Strain/Indicator: TA98, Metabolic Activation: NONE, Method: PREINCUBATION inactive; negative | [5] inactive; negative | Test System: AMES SALMONELLA TYPHIMURIUM, Strain/Indicator: TA98, Metabolic Activation: RAT, LIVER, S-9, AROCLOR 1254, Method: PREINCUBATION inactive; negative | [7] inactive; negative | Test System: AMES SALMONELLA TYPHIMURIUM, Strain/Indicator: TA98, Metabolic Activation: S-9 inactive; negative | [2] inactive; negative | Test System: AMES SALMONELLA TYPHIMURIUM, Strain/Indicator: TA100, Metabolic Activation: NONE, Method: PREINCUBATION inactive; negative | [6] inactive; negative | Test System: AMES SALMONELLA TYPHIMURIUM, Strain/Indicator: TA100, Metabolic Activation: RAT, LIVER, S-9, AROCLOR 1254, Method: PREINCUBATION inactive; negative | [8] inactive; negative | Test System: AMES SALMONELLA TYPHIMURIUM, Strain/Indicator: TA100, Metabolic Activation: S-9 inactive; negative | [3] inactive; negative | Test System: AMES SALMONELLA TYPHIMURIUM, Strain/Indicator: TA1535, Metabolic Activation: NONE, Method: PREINCUBATION inactive; negative | Test System: AMES SALMONELLA TYPHIMURIUM, Strain/Indicator: TA1535, Metabolic Activation: NONE, Method: STANDARD PLATE inactive; negative | Test System: AMES SALMONELLA TYPHIMURIUM, Strain/Indicator: TA1535, Metabolic Activation: RAT, LIVER, S-9, AROCLOR 1254, Method: PREINCUBATION inactive; negative | Test System: AMES SALMONELLA TYPHIMURIUM, Strain/Indicator: TA1535, Metabolic Activation: RAT, LIVER, S-9, AROCLOR 1254, Method: STANDARD PLATE inactive; negative | Test System: AMES SALMONELLA TYPHIMURIUM, Strain/Indicator: TA1535, Metabolic Activation: S-9 inactive; negative | [4] inactive; negative | Test System: AMES SALMONELLA TYPHIMURIUM, Strain/Indicator: TA1537, Metabolic Activation: NONE, Method: PREINCUBATION inactive; negative | Test System: AMES SALMONELLA TYPHIMURIUM, Strain/Indicator: TA1537, Metabolic Activation: NONE, Method: STANDARD PLATE inactive; negative | Test System: AMES SALMONELLA TYPHIMURIUM, Strain/Indicator: TA1537, Metabolic Activation: RAT, LIVER, S-9, AROCLOR 1254, Method: PREINCUBATION inactive; negative | Test System: AMES SALMONELLA TYPHIMURIUM, Strain/Indicator: TA1537, Metabolic Activation: RAT, LIVER, S-9, AROCLOR 1254, Method: STANDARD PLATE inactive; negative | Test System: AMES SALMONELLA TYPHIMURIUM, Strain/Indicator: TA1537, Metabolic Activation: S-9 inactive; negative | Test System: AMES SALMONELLA TYPHIMURIUM, Strain/Indicator: TA1538, Metabolic Activation: NONE, Method: PREINCUBATION inactive; negative | Test System: AMES SALMONELLA TYPHIMURIUM, Strain/Indicator: TA1538, Metabolic Activation: NONE, Method: STANDARD PLATE inactive; negative | Test System: AMES SALMONELLA TYPHIMURIUM, Strain/Indicator: TA1538, Metabolic Activation: RAT, LIVER, S-9, AROCLOR 1254, Method: PREINCUBATION inactive; negative | Test System: AMES SALMONELLA TYPHIMURIUM, Strain/Indicator: TA1538, Metabolic Activation: RAT, LIVER, S-9, AROCLOR 1254, Method: STANDARD PLATE inactive; negative | Test System: E. COLI, Strain/Indicator: WP2 UVRA, Metabolic Activation: NONE inactive; negative | Test System: E. COLI, Strain/Indicator: WP2 UVRA, Metabolic Activation: S-9 inactive; negative

Cn1cc(C(=O)O)c(=O)c2ccc(/C=C/c3ccc([N+](=O)[O-])o3)nc21
active: Test System: AMES SALMONELLA TYPHIMURIUM, Strain/Indicator: TA100, Metabolic Activation: RAT, LIVER, S-9, KC500 OR PHENOBARBITAL, Method: LIQUID SUSPENSION active; positive

CC(Cl)c1ccccc1 (stereo not drawn)
inactive: [5] inactive; negative | [6] inactive; negative

ClCc1cc2c3ccccc3cc3ccc4cccc1c4c32
active: [5] active; positive | [6] active; positive
